Data as given in patent publication US9694027B2, “Pyrazole derivative and use thereof for medical purposes” (KISSEI PHARMACEUTICAL CO. LTD., priority 2012, dated 2017).

Experiments:
[1] = test system: Loperamide-induced dog constipation model; experiment: Loperamide-induced dog constipation model (Example 1); assay type: in vivo; details: for Dry fecal weight within 24 hours after the administration / Wet fecal weight within 24 hours after the administration / Frequency of bowel movement within 24 hours after the administration: mean of 10 dogs; for Dry fecal weight within 24 hours after the administration: Control group 1.0, Normal group 47.1; for Wet fecal weight within 24 hours after the administration: Control group 2.8, Normal group 136.2; for Frequency of bowel movement within 24 hours after the administration: observation at 17, 21, 24 hours, Control group 0.2, Normal group 2.1
Experimental: Lubiprostone (TLC Pharma Chem) was weighed and was suspended in 0.5% methylcellulose at preparation concentrations of 0.05 and 0.35 mg/mL to prepare control substances.
Loperamide hydrochloride (Wako pure chemical) was weighed at 0.3, 0.5, 1.0, 2.0, 4.0 or 8.0 mg/kg for each animal and was filled into a gelatin capsule.
Loperamide hydrochloride which was filled into a gelatin capsule was orally administered to dogs (beagle, male, 13-14 months old, 10 dogs, Kitayama-labesu). The dosage was increased from 0.3 mg/kg, and was set at 2.0, 4.0 or 8.0 mg/kg based on the bowel movement condition of each dog.
Tests were performed as a full cross-over trial. More than 5-day washout period was provided between each test, and a recovery of stool form was identified, and then the next test was performed.
A gelatin capsule which was filled with loperamide hydrochloride was administered orally at around 9 a.m. on the first and second days in each test.
The stool form of feces was scored in seven categories based on Bristol Stool Form Scale. The collected feces were dried fully, and then the feces were weighed, and it was set as the dry fecal weight.

[2] = test system: rat model of low-fiber diet-induced constipation; experiment: Rat model of low-fiber diet-induced constipation (Example 2); details: for Fecal weight within 24 hours after the administration: followed by mixed carbohydrate, n=4, Control group 1 0.53, Normal feed group 8.33
Experimental: Compound 2 was weighed and was dissolved in distilled water at preparation concentrations of 3, 10 and 30 mg/mL as the free drug to prepare test compounds.
0.5% methylcellulose (0.5% MC) was used as a vehicle for preparation of lubiprostone. Lubiprostone was weighed and was suspended in 0.5% MC at preparation concentrations of 1, 3 and 10 mg/mL to prepare control substances.
Magnesium sulfate (MgSO4) (Wako pure chemical) was weighed and was dissolved in distilled water at a preparation concentrations of 200 mg/mL to prepare a positive control substance.
A soluble starch, sucrose and lactose monohydrate were weighed at a rate of 6:3:1 and were dissolved in distilled water which was approximately 80% of the amounts of preparation on heating, and then the mixture was added with distilled water to prepare 0.4 g/mL solution of mixed carbohydrate.
A low-fiber diet was prepared based on the literature (Kakino et al. BMC Complementary and Alternative Medicine 2010, 10: 68).
Rats were fed on the low-fiber diet for 1-2 weeks to induce constipation.
Compound 2 (3 mg/kg, 10 mg/kg or 30 mg/kg as free drug), lubiprostone (1 mg/kg, 3 mg/kg or 10 mg/kg), MgSO4 (2000 mg/kg) or a vehicle (distilled water: Control group 1, 0.5% MC: Control group 2) was administered orally at around 9 a.m. using a 1 mL glass syringe and a stomach tube. Then, 0.4 g/mL solution of mixed carbohydrate was administered orally at 2 mL/body to Control group 1 and the groups administered with Compound 2. Distilled water was administered to the normal feed group.
The sum of the fecal weights at the collection times was set as the fecal weight at 24 hours after the administration.
The statistical analysis was made by testing the uniformity of variance using Bartlett's method, and multiple comparison between Control group 1 and the group administered with Compound 2 or Control group 2 and the group administered with lubiprostone was made using Dunnett's method when variance was uniform respectively, and multiple comparison was made using Steel's method when variance was not uniform. In each case, significance level<5% was considered as significant difference.

Increases of loose stool and diarrhea ([1]; all doses of this test): not observed
Compound: Cc1cc(OCCCNCC(C)(C)C(N)=O)ccc1Cc1c(O[C@@H]2O[C@H](CO)[C@@H](O)[C@H](O)[C@H]2O)n[nH]c1C(C)C.Cc1cc(OCCCNCC(C)(C)C(N)=O)ccc1Cc1c(O[C@@H]2O[C@H](CO)[C@@H](O)[C@H](O)[C@H]2O)n[nH]c1C(C)C.O=C(O)CCCCCCCCC(=O)O [Compound 2, bis[3-(3-{4-[3-(β-D-glucopyranosyloxy)-5-isopropyl-1H-pyrazol-4-ylmethyl]-3-methylphenoxy}propylamino)-2,2-dimethylpropionamide]monosebacate]
Dry fecal weight within 24 hours after the administration ([1]; 1 mg/kg oral): 10.4 g
Wet fecal weight within 24 hours after the administration ([1]; 1 mg/kg oral): 29.5 g
Frequency of bowel movement within 24 hours after the administration ([1]; 1 mg/kg oral): 0.5 time
Wet fecal weight, dry weight and frequency of bowel movements versus Control group ([1]; 3 mg/kg or more, significance level <5%): significantly higher than in Control group
Dry fecal weight within 24 hours after the administration ([1]; 3 mg/kg oral): 21.6 g
Wet fecal weight within 24 hours after the administration ([1]; 3 mg/kg oral): 60.9 g
Frequency of bowel movement within 24 hours after the administration ([1]; 3 mg/kg oral): 1.2 time
Dry fecal weight within 24 hours after the administration ([1]; 10 mg/kg oral): 27.3 g
Wet fecal weight within 24 hours after the administration ([1]; 10 mg/kg oral): 77.2 g
Frequency of bowel movement within 24 hours after the administration ([1]; 10 mg/kg oral): 1.5 time
Dose dependence of wet fecal weight, dry weight and frequency of bowel movements ([1]; within 24 hours after oral administration): dose-dependently increased
Fecal weight within 24 hours after the administration ([2]; 3 mg/kg as free drug oral): 1.20 g
Fecal weight within 24 hours after the administration ([2]; 10 mg/kg as free drug oral): 4.20 g
Fecal weight during 24 hours versus Control group ([2]; 10 mg/kg or more, versus Control group 1, significance level <5%): significantly higher than in each Control group
Fecal weight within 24 hours after the administration ([2]; 30 mg/kg as free drug oral): 4.93 g
Dose dependence of fecal weight during 24 hours after the administration ([2]; oral): dose-dependently increased
